Experimental data as given in patent US4689227A, “Antibacterial composition” (Hoffmann-La Roche Inc., priority 1984, dated 1987).
Values after ≈ are worked out from the molar mass of the structure shown. Read-outs that look alike come from different tables or passages of the source.

What was measured:
Type in all cases: cell-based
Enterobacter strains = test: Activity and synergism against Enterobacter strains
Excerpt: In the scope of the present invention it has been ascertained that compound A, which has hitherto not been considered as a combination partner for mecillinam, is especially well suited for such a combination.
(§1) In the following Table there are presented for the composition in accordance with the invention the minimum inhibitory concentrations (MIC values in μ/ml) determined in in vitro comparative tests in the case of various infections with pathogenic microorganisms.

[1] = test system: Pseudomonas aeruginosa 143724 R; test: In vitro activity (MIC), agar dilution test
Excerpt: as §1
(§2) In vitro activity of compound A and mecillinam (MEC) against various
(§3) of bacteria (MIC μg/ml) Method: Agar dilution test with DST agar

[2] = test system: Enterobacter cloacae MK 1617; test: In vitro activity (MIC), agar dilution test
Excerpt: as §1, §2, §3

[3] = test system: Enterobacter agglomerans 960; test: In vitro activity (MIC), agar dilution test; details: Pantoea agglomerans
Excerpt: as §1, §2, §3

[4] = test system: Citrobacter freundii 1982; test: In vitro activity (MIC), agar dilution test
Excerpt: as §1, §2, §3

Escherichia coli 5/9 = test: In vitro activity (MIC), agar dilution test
Excerpt: as §1, §2, §3

[5] = test system: Enterobacter cloacae MK 373; test: In vitro activity (MIC), agar dilution test; details: MK373
Excerpt: as §1, §2, §3

[6] = test system: Citrobacter freundii 1385 b; test: In vitro activity (MIC), agar dilution test
Excerpt: as §1, §2, §3

Enterobacter cloacae 908 = test: In vitro activity (MIC), agar dilution test
Excerpt: as §1, §2, §3

[7] = test system: Pseudomonas aeruginosa 1937 E; test: In vitro activity (MIC), agar dilution test
Excerpt: as §1, §2, §3

[8] = test system: Pseudomonas aeruginosa 5748; test: In vitro activity (MIC), agar dilution test
Excerpt: as §1, §2, §3

Enterobacter cloacae 163 = test: In vitro activity (MIC), agar dilution test
Excerpt: as §1, §2, §3

[9] = test system: Pseudomonas aeruginosa 1920 E; test: In vitro activity (MIC), agar dilution test
Excerpt: as §1, §2, §3

Enterobacter cloacae 5 = test: In vitro activity (MIC), agar dilution test
Excerpt: as §1, §2, §3

[10] = test system: Pseudomonas aeruginosa 5646; test: In vitro activity (MIC), agar dilution test
Excerpt: as §1, §2, §3

[11] = test system: Acinetobacter anitratus 5I-156; test: In vitro activity (MIC), agar dilution test; details: Acinetobacter calcoaceticus, 5I156
Excerpt: as §1, §2, §3

Enterobacter cloacae P99 = test: In vitro activity (MIC), agar dilution test
Excerpt: as §1, §2, §3

[12] = single substance, DST agar (Oxoid), read-out: MIC

Compound: NC(=O)OC[C@@H]1[C@H](NC(=O)/C(=N\OCC(=O)O)c2csc(N)n2)C(=O)N1S(=O)(=O)O [Compound A, (2S,3S)-3-((Z)-2-(2-amino-4-thiazolyl)-2-[(carboxymethoxy)imino]acetamido)-2-[(carbamoyloxy)-methyl]-4-oxo-1-azetidinesulphonic acid]
- sensitivity of the strains (Enterobacter strains): only moderately sensitive
- MIC [1, 12]: 8 µg/mL (≈ 17.2 µM)
- MIC ([2]; MK1617, single substance, DST agar (Oxoid), read-out: MIC): 32 µg/mL (≈ 68.6 µM)
- MIC [3, 12]: 16 µg/mL (≈ 34.3 µM)
- MIC [4, 12]: 4 µg/mL (≈ 8.58 µM)
- MIC (Escherichia coli 5/9; [12]): 2 µg/mL (≈ 4.29 µM)
- MIC [5]: 4 µg/mL (≈ 8.58 µM)
- MIC [6, 12]: 8 µg/mL (≈ 17.2 µM)
- MIC (Enterobacter cloacae 908; [12]): 32 µg/mL (≈ 68.6 µM)
- MIC [7, 12]: 2 µg/mL (≈ 4.29 µM)
- MIC [8]: 8 µg/mL (≈ 17.2 µM)
- MIC (Enterobacter cloacae 163; [12]): 32 µg/mL (≈ 68.6 µM)
- MIC [9, 12]: 4 µg/mL (≈ 8.58 µM)
- MIC (Enterobacter cloacae 5; [12]): 8 µg/mL (≈ 17.2 µM)
- MIC [10, 12]: 8 µg/mL (≈ 17.2 µM)
- MIC [11, 12]: 16 µg/mL (≈ 34.3 µM)
- MIC (Enterobacter cloacae P99): 16 µg/mL (≈ 34.3 µM)

Compound: CC1(C)S[C@@H]2[C@H](/N=C/N3CCCCCC3)C(=O)N2[C@H]1C(=O)O [MEC, mecillinam]
- sensitivity of the strains (Enterobacter strains): resistant
- MIC [1]: > 256 µg/mL
- MIC ([2]; MK1617): > 256 µg/mL
- MIC [3]: > 256 µg/mL
- MIC [4]: > 256 µg/mL
- MIC (Escherichia coli 5/9): > 256 µg/mL
- MIC [5]: > 256 µg/mL
- MIC [6]: > 256 µg/mL
- MIC (Enterobacter cloacae 908): > 256 µg/mL
- MIC [7]: > 256 µg/mL
- MIC [8]: > 256 µg/mL
- MIC (Enterobacter cloacae 163): > 256 µg/mL
- MIC [9]: > 256 µg/mL
- MIC (Enterobacter cloacae 5): > 256 µg/mL
- MIC [10]: > 256 µg/mL
- MIC [11]: > 256 µg/mL
- MIC (Enterobacter cloacae P99): > 256 µg/mL
